Key:
Experiment in all cases: post-emergent herbicidal activity, greenhouse
Assay type in all cases: in vivo
Conditions in all cases: Table I
Johnsongrass = system: Johnsongrass
From the text: (§1) A good grade of top soil is placed in aluminum pans having holes in the bottom and compacted to a depth of 0.95 to 1.27 cm. from the top of the pan. A predetermined number of seeds of each of several dicotyledonous and monocotyledonous annual plant species and/or vegetative propagules for the perennial plant species were placed on the soil and pressed into the soil surface. The seeds and/or vegetative propagules are covered with soil and leveled. The pans are then placed on a sand bench in the greenhouse and watered from below as needed. After the plants reach the desired age (two to three weeks), each pan except for the control pans is removed individually to a spraying chamber and sprayed by means of an atomizer operating at a positive air pressure of approximately 1.46 kg/cm^2 absolute. The atomizer contains 6 ml. of a solution or suspension of the chemical. In that 6 ml., is an amount of a cyclohexanone emulsifying agent mixture to give a spray solution or suspension which contains about 0.4% by weight of the emulsifier. The spray solution or suspension contains a sufficient amount of the candidate chemical in order to give application rates corresponding to those set forth in the tables. The spray solution is prepared by taking an aliquot of a 1.0% by weight stock solution or suspension of the candidate chemical in an organic solvent such as acetone or tetrahydrofuran or in water. The emulsifying agent employed is a mixture comprising 35 weight percent butylamine dodecylbenzene sulfonate and 65 weight percent of a tall oil ethylene oxide condensate having about 11 moles of ethylene oxide per mole of tall oil. The pans are returned to the greenhouse and watered as before and the injury to the plants as compared to the control is observed at approximately two and four weeks as indicated in the tables under WAT and the results recorded. In some instances, the two-week observations are omitted.
(§2) The post-emergent herbicidal activity index used in Tables I and II is as follows: […]

Lambsquarters = system: Lambsquarters
From the text: as §1, §2

Cocklebur = system: Cocklebur
From the text: as §1, §2

Velvetleaf = system: Velvetleaf
From the text: as §1, §2

Barnyardgrass = system: Barnyardgrass
From the text: as §1, §2

Quackgrass = system: Quackgrass
From the text: as §1, §2

Downy Brome = system: Downy Brome
From the text: as §1, §2

Yellow Nutsedge = system: Yellow Nutsedge
From the text: as §1, §2

Canada Thistle = system: Canada Thistle
From the text: as §1, §2

Morningglory = system: Morningglory
From the text: as §1, §2

Smartweed = system: Smartweed
From the text: as §1, §2

Measured: post-emergent herbicidal activity index

CCOC(=O)CNCP(=O)(OC(CC(=O)OCC)C(=O)OCC)OC(CC(=O)OCC)C(=O)OCC (centres unmarked) [Example 14, butanoic acid, 2,2'-[[[(2-ethoxy-2-oxo-ethyl)amino]methyl]phosphinylidene]bis(oxy)-bis-,tetraethyl ester]
1 (25-49% control): Yellow Nutsedge; 4 WAT, 56.0 kg/h | Canada Thistle; 4 WAT, 56.0 kg/h
2 (50-74% control): Downy Brome; 4 WAT, 56.0 kg/h | Morningglory; 4 WAT, 56.0 kg/h
4 (100% control): Lambsquarters; 2 WAT, 56.0 kg/h | Lambsquarters; 4 WAT, 56.0 kg/h | Cocklebur; 2 WAT, 56.0 kg/h | Cocklebur; 4 WAT, 56.0 kg/h | Velvetleaf; 2 WAT, 56.0 kg/h | Barnyardgrass; 2 WAT, 56.0 kg/h | Quackgrass; 2 WAT, 56.0 kg/h | Yellow Nutsedge; 2 WAT, 56.0 kg/h | Canada Thistle; 2 WAT, 56.0 kg/h | Smartweed; 2 WAT, 56.0 kg/h
0 (0-24% control): Johnsongrass; 2 WAT, 5.6 kg/h | Johnsongrass; 2 WAT, 11.2 kg/h | Lambsquarters; 2 WAT, 5.6 kg/h | Lambsquarters; 2 WAT, 11.2 kg/h | Cocklebur; 2 WAT, 5.6 kg/h | Cocklebur; 2 WAT, 11.2 kg/h | Velvetleaf; 2 WAT, 5.6 kg/h | Velvetleaf; 2 WAT, 11.2 kg/h | Barnyardgrass; 2 WAT, 5.6 kg/h | Barnyardgrass; 2 WAT, 11.2 kg/h | Quackgrass; 2 WAT, 5.6 kg/h | Quackgrass; 2 WAT, 11.2 kg/h | Downy Brome; 2 WAT, 5.6 kg/h | Downy Brome; 2 WAT, 11.2 kg/h | Yellow Nutsedge; 2 WAT, 5.6 kg/h | Yellow Nutsedge; 2 WAT, 11.2 kg/h | Canada Thistle; 2 WAT, 5.6 kg/h | Canada Thistle; 2 WAT, 11.2 kg/h | Morningglory; 2 WAT, 5.6 kg/h | Morningglory; 2 WAT, 11.2 kg/h | Smartweed; 2 WAT, 5.6 kg/h | Smartweed; 2 WAT, 11.2 kg/h
3 (75-99% control): Johnsongrass; 2 WAT, 56.0 kg/h | Johnsongrass; 4 WAT, 56.0 kg/h | Velvetleaf; 4 WAT, 56.0 kg/h | Barnyardgrass; 4 WAT, 56.0 kg/h | Quackgrass; 4 WAT, 56.0 kg/h | Downy Brome; 2 WAT, 56.0 kg/h | Morningglory; 2 WAT, 56.0 kg/h | Smartweed; 4 WAT, 56.0 kg/h

CCOC(=O)CNCP(=O)(OC(C)C(=O)OCC)OC(C)C(=O)OCC (centres unmarked) [Example 16, propanoic acid, 2,2'-[[[[(2-ethoxy-2-oxoethyl)amino]methyl]phosphinylidene]bis(oxy)]-bis-,diethyl ester]
0 (0-24% control): Johnsongrass; 4 WAT, 5.6 kg/h | Johnsongrass; 4 WAT, 11.2 kg/h | Lambsquarters; 4 WAT, 5.6 kg/h | Lambsquarters; 4 WAT, 11.2 kg/h | Cocklebur; 4 WAT, 5.6 kg/h | Velvetleaf; 4 WAT, 5.6 kg/h | Velvetleaf; 4 WAT, 11.2 kg/h | Quackgrass; 4 WAT, 5.6 kg/h | Quackgrass; 4 WAT, 11.2 kg/h | Downy Brome; 4 WAT, 5.6 kg/h | Canada Thistle; 4 WAT, 5.6 kg/h | Canada Thistle; 4 WAT, 11.2 kg/h | Smartweed; 4 WAT, 5.6 kg/h | Smartweed; 4 WAT, 11.2 kg/h
1 (25-49% control): Cocklebur; 4 WAT, 11.2 kg/h | Barnyardgrass; 4 WAT, 5.6 kg/h | Barnyardgrass; 4 WAT, 11.2 kg/h | Downy Brome; 4 WAT, 11.2 kg/h | Yellow Nutsedge; 4 WAT, 5.6 kg/h | Yellow Nutsedge; 4 WAT, 11.2 kg/h | Morningglory; 4 WAT, 5.6 kg/h | Morningglory; 4 WAT, 11.2 kg/h

CCOC(=O)CNCP(=O)(OCCCl)OCCCl [Example 17, glycine, N-[[bis(2-chloroethoxy)phosphinyl]methyl]-, ethyl ester]
0 (0-24% control): Johnsongrass; 2 WAT, 5.6 kg/h | Johnsongrass; 4 WAT, 11.2 kg/h | Lambsquarters; 2 WAT, 5.6 kg/h | Cocklebur; 2 WAT, 5.6 kg/h | Cocklebur; 4 WAT, 11.2 kg/h | Velvetleaf; 2 WAT, 5.6 kg/h | Barnyardgrass; 2 WAT, 5.6 kg/h | Quackgrass; 2 WAT, 5.6 kg/h | Quackgrass; 4 WAT, 11.2 kg/h | Downy Brome; 2 WAT, 5.6 kg/h | Downy Brome; 4 WAT, 11.2 kg/h | Yellow Nutsedge; 2 WAT, 5.6 kg/h | Yellow Nutsedge; 4 WAT, 11.2 kg/h | Canada Thistle; 2 WAT, 5.6 kg/h | Canada Thistle; 4 WAT, 11.2 kg/h | Morningglory; 2 WAT, 5.6 kg/h | Smartweed; 2 WAT, 5.6 kg/h
1 (25-49% control): Lambsquarters; 4 WAT, 11.2 kg/h | Velvetleaf; 4 WAT, 11.2 kg/h | Barnyardgrass; 4 WAT, 11.2 kg/h | Morningglory; 4 WAT, 11.2 kg/h | Smartweed; 4 WAT, 11.2 kg/h

CCOC(=O)CNCP(=O)(OC(C)C(=O)OC)OC(C)C(=O)OC (centres unmarked) [Example 18]
2 (50-74% control): Barnyardgrass; 4 WAT, 11.2 kg/h | Downy Brome; 4 WAT, 11.2 kg/h | Yellow Nutsedge; 4 WAT, 11.2 kg/h
1 (25-49% control): Johnsongrass; 4 WAT, 11.2 kg/h | Barnyardgrass; 4 WAT, 5.6 kg/h | Yellow Nutsedge; 4 WAT, 5.6 kg/h | Morningglory; 4 WAT, 5.6 kg/h | Morningglory; 4 WAT, 11.2 kg/h
3 (75-99% control): Quackgrass; 4 WAT, 11.2 kg/h
0 (0-24% control): Johnsongrass; 4 WAT, 5.6 kg/h | Lambsquarters; 4 WAT, 5.6 kg/h | Lambsquarters; 4 WAT, 11.2 kg/h | Cocklebur; 4 WAT, 5.6 kg/h | Cocklebur; 4 WAT, 11.2 kg/h | Velvetleaf; 4 WAT, 5.6 kg/h | Velvetleaf; 4 WAT, 11.2 kg/h | Quackgrass; 4 WAT, 5.6 kg/h | Downy Brome; 4 WAT, 5.6 kg/h | Canada Thistle; 4 WAT, 5.6 kg/h | Canada Thistle; 4 WAT, 11.2 kg/h | Smartweed; 4 WAT, 5.6 kg/h | Smartweed; 4 WAT, 11.2 kg/h
